Experiment: cn = amount concentration of the nth substance listed, in mol/dm3
Details: 101 kPa, Liquid; for viscosity: Capillary tube (Ostwald / Ubbelohde) method; for mass density: Pycnometric method

NCCCC[C@H](N)C(=O)[O-].[K+] [potassium L-lysinate] + O
Details	mass density, 298 K [kg/m3]	mass density, 308 K [kg/m3]	mass density, 313 K [kg/m3]	viscosity, 298 K [mPa·s]	viscosity, 308 K [mPa·s]	viscosity, 313 K [mPa·s]
c1 = 0.5	1038.6	1036.3	1030.7	1.162	0.9848	0.894
c1 = 1.5	1108.9	1107.5	1105.1	2.284	1.905	1.686
c1 = 2.5	1173.8	1171.1	1168.8	3.165	2.653	2.416
